Measured values: patent US9351986B2, “Calicheamicin derivative-carrier conjugates” (priority 2002, dated 2016)
Changes are numbered by the printed parent chain. Read-outs that look alike come from different tables or passages of the source.

How the values were obtained:
CD22mFc = test: BIACORE biosensor binding analysis of CMC-544 and G5/44; conditions: Table 3
Procedure: Biosensor analyses were carried out using a BIACORE™ 2000 (BIAcore AB, Uppsala, Sweden). CD22mFc was covalently immobilized on the N-hydroxysuccinimide-activated carboxymethyl dextran-coated biosensor chip (CM5) using a standard amine-coupling chemistry at a protein density of approximately 2000 resonance units. Samples of CMC-544 or G5/44 were diluted in the HBS buffer (10 mM HEPES, pH 7.4, containing 150 mM NaCl, 3 mM EDTA and 0.005% polysorbate 20 (v/v)) and injected in the concentration range of 1 to 100 nM over the CD22mFc-coated biosensor chip surface at a flow rate of 30 μl/min for 3 min to allow binding. After the binding phase, dissociation of the bound antibody was monitored by washing the chip with the HBS buffer over a 15 minute period. The antigenic surface was regenerated by washing the Biosensor chip with 15 μl of the regeneration buffer (10 mM NaOH and 200 mM NaCl) for 30 seconds, followed by a stabilization time of 2 minutes before the next cycle. Kinetic constants were calculated by nonlinear least square regression analysis using a 1:1 Langmuir binding curve fitting model and BIAevaluation program (version 3.0, BIAcore). The antigen binding of CMC-544 was evaluated by surface plasmon resonance analysis using CD22mFc covalently immobilized on a biosensor chip.

CD22-mFc = test: BIACORE affinity of chimeric 5/44 and its variants; assay type: binding; conditions: CDR-H2 mutants of chimeric 5/44
Procedure: The activities of the chimeric genes were evaluated following transient transfection into CHO cells and determination of affinity constants by BIACORE™ analysis.
The affinities of chimeric 5/44 or its variants, which have had their glycosylation site or their reactive lysine removed, were investigated using BIA technology for binding to CD22-mFc constructs. All binding measurements were performed in the BIACORE™ 2000 instrument (Pharmacia Biosensor AB, Uppsala, Sweden). The assay was performed by capture of CD22mFc via the immobilized anti-mouse Fc. The antibody was in the soluble phase. Samples, standard, and controls (50 μl) were injected over immobilized anti-mouse Fc followed by antibody in the soluble phase. After each cycle, the surface was regenerated with 50 μl of 40 mM HCl at 30 μl/min. The kinetic analysis was performed using the BIAevaluation 3.1 software (Pharmacia).

RL = test: In vitro growth inhibition of RL B-cell lymphoma line; assay type: cell-based; conditions: for IC50: read-out: IC50 of calicheamicin
Source text: (§1) The effect of CMC-544 made by using CMA-676 and CMC-544 processes on the in vitro growth of CD22^+ B-Cell lymphoma cell lines, RL, Daudi, Raji and Ramos, were compared. An isotype-matched calicheamicin conjugate targeted at human CD33 (CMA-676) was used to reflect antigen-non-specific effects of the conjugate. […] CD22-mediated delivery of calicheamicin to the CD22^+ cells was at least 10 times more efficient in killing the target cells than the unconjugated drug itself. […] It is apparent from Table 4 that conjugate made by the CMC-544 conjugation process can generate equivalent cytotoxic effect at lower antibody concentrations than conjugate made by the CMA-676 conjugation process.

Daudi = test: In vitro growth inhibition of Daudi B-cell lymphoma line; assay type: cell-based; conditions: Daudi #1; for IC50: read-out: IC50 of calicheamicin
Source text: as §1

Raji = test: In vitro growth inhibition of Raji B-cell lymphoma line; assay type: cell-based; conditions: for IC50: read-out: IC50 of calicheamicin
Source text: as §1

Ramos = test: In vitro growth inhibition of Ramos B-cell lymphoma line; assay type: cell-based, human; conditions: for IC50: read-out: IC50 of calicheamicin
Source text: as §1

[1] = tested on: CD22− CD33+ HL-60 leukemia cells; test: Flow cytometry binding to HL-60 leukemia cells; conditions: data not shown
Source text: Purified human polyclonal IgG1 and IgG4 were also used as negative controls.

RAMOS B-cell lymphoma = RAMOS B-cell lymphoma xenograft growth; assay type: in vivo; conditions: 10 mg/kg intraperitoneal, subcutaneous xenografts
Source text: In Vivo Cytotoxicity. CMC-544 made by the CMC-544 process was further evaluated in B-cell lymphoma xenografts. In these studies, two B-cell lymphoma tumors, RAMOS and RL, were used. RL lymphoma is a non-Burkitt's NHL-derived cell line whereas RAMOS was originally derived from a Burkitt's lymphoma.

large RAMOS lymphoma = test: Large established RAMOS lymphoma xenografts; assay type: in vivo, nude mice; conditions: 160 μg/kg ip, days 1, 5 and 9
Procedure: The ability of CMC-544 made by the new procedure to inhibit growth of large established B-cell lymphoma xenografts using both the RAMOS and RL lymphoma models was also investigated. The tumors were allowed to grow and staged to 1.5 or 2 g of tumor mass after which CMC-544 or an isotype-matched negative control conjugate (CMA-676) were administered intraperitoneally at the dose of 160 μg/kg of conjugated calicheamicin keeping the original schedule of dosing on days 1, 5 and 9.
The same schedule of dosing was shown earlier to cause long lasting regression of small staged tumors (see Table 6).

Ramos cells [2] = test: Disseminated RAMOS B lymphoma in SCID mice, developing model; assay type: in vivo
Procedure: (§2) Male SCID mice (CB17 SCID), 20-25 g, were injected with […] through the tail vein (0.2 ml). […] For the day 3 treatment schedule, mice were dosed on days 3, 7, and 11. For the day 9 treatment schedule, mice were dosed on days 9, 13 and 17. […] Mice were monitored daily for the presence of hind limb paralysis at which time they were killed. Seven to 10 mice per treatment group were used. The group average survival time (±SD), median, minimum, and maximum survival times were all calculated. The difference in survival distribution between groups was determined by using a nonparametric Log-rank test with significance reported at the 0.05 level. The survival curves were constructed using the Kaplan-Meier method.
(§3) The initial study examined the effect of two different dosing schedules on survival times of the SCID mice with the disseminated lymphoma. The first study looked at initiating drug dosing 3 days after the tumor cells were injected intravenously (developing model), while the second study delayed drug dosing until 9 days post tumor cell injection (established model).

Ramos cells [3] = test: Disseminated RAMOS B lymphoma in SCID mice, established model; assay type: in vivo
Procedure: as §2
as §3, with “model). […]” for “model).”

RL NHL xenografts = RL NHL xenografts staged to 300-400 mg in nude mice; assay type: in vivo; conditions: 160 μg/kg intraperitoneally
Procedure: Similar studies were carried out using the RL lymphoma model. […] CMC-544 in a dose-dependent manner caused tumors to regress over a 3-week time frame. The minimally effective dose of CMC-544 in the RL lymphoma model was established from statistical analyses of these studies to be 20 μg/kg based on calicheamicin content. There were no deaths in any of these three studies.
The observed anti-tumor efficacy was dose-dependent as expected and there was no difference in the efficacies of either of the two CMC-544 preparations. […] However, it should be emphasized that for each dose of conjugated calicheamicin, the quantity of antibody protein administered in the form of a conjugate was four times higher for CMC-544 made by the CMA-676 process versus that made by the CMC-544 process. Since the calicheamicin content of the targeted conjugate is primarily responsible for causing the anti-tumor effect, it is possible to deliver the required quantity of calicheamicin via the conjugate made by the new procedure using much smaller quantities of the targeting antibody. The increased loading of the conjugate made by the CMC-544 process is, in effect, due to the lack of significant amounts of the low conjugated fraction (LCF).

cell surface CD22 = target: T1, cell surface CD22 (Homo sapiens, UniProt P20273); test: Competition assay against mouse 5/44 antibody for binding to Ramos cells; conditions: grafted variants expressed in CHO cells
T1 construct: host or cells: Ramos (Burkitt's lymphoma)
Source text: The vectors encoding grafted variants were co-transfected into CHO cells in a variety of combinations, together with the original chimeric antibody chains. Binding activity was compared in a competition assay, competing the binding of the original mouse 5/44 antibody for binding to Ramos cells (obtained from ATCC, a Burkitt's lymphoma lymphoblast human cell line expressing surface CD22). This assay was considered the best way to compare the grafts in their ability to bind to cell surface CD22.

[4] = Table 8, conjugates 160 μg/kg, rituximab 20 mg/kg ip Q4Dx3 from day 3
[5] = Table 8, conjugates 160 μg/kg, rituximab 20 mg/kg ip Q4Dx3 from day 9

## CMC-544 (21 μg/mg) (CMA-676 procedure)
CD22mFc
  KA: 8.1e+09 M⁻¹
  Ka: 490000 M⁻¹ s⁻¹
  Kd: 6.1e-05 s⁻¹

## K60R: chimeric 5/44 with CDR-H2 mutation K60R removing the reactive lysine
CD22-mFc
  effect of the mutation on affinity: neutral effect on affinity

## CMC-544 PROCESS CMC-544 LOADING 65 μg/mg: CMC-544 made by the CMC-544 conjugation process
RL; RL #1
  IC50: 0.006 nM
RL; RL #2
  IC50: 0.012 nM
Daudi
  IC50: 0.021 nM
Raji; Raji #1
  IC50: 0.5 nM
Raji; Raji #2
  IC50: 0.56 nM
Ramos; Ramos #2
  IC50: 0.26 nM

## CMC-676 PROCESS CMC-544 LOADING 35 μg/mg: CMC-544 made by the CMA-676 conjugation process
RL; RL #1
  IC50: 0.03 nM
RL; RL #2
  IC50: 0.04 nM
Daudi
  IC50: 0.08 nM
Raji; Raji #2
  IC50: 0.52 nM

## G5/44: CDR-grafted humanized antibody directed against cell surface antigen CD22, IgG4 isotype
CD22mFc
  KA: 7.9e+09 M⁻¹
  Ka: 220000 M⁻¹ s⁻¹
  Kd: 2.8e-05 s⁻¹
[1]
  binding to HL-60 leukemia cells: neither CMC-544 nor G5/44 demonstrated any binding
RL; RL #1
  IC50 of antibody: >100 µg/mL
RL; RL #2
  IC50 of antibody: >100 µg/mL
Daudi
  IC50 of antibody: >100 µg/mL
Raji; Raji #1
  IC50 of antibody: >100 µg/mL
Raji; Raji #2
  IC50 of antibody: >100 µg/mL
Ramos; Ramos #1
  IC50 of antibody: >100 µg/mL
Ramos; Ramos #2
  IC50 of antibody: >100 µg/mL
RAMOS B-cell lymphoma
  effect of unconjugated antibody on tumor growth: no effect on tumor growth

## N55Q: chimeric 5/44 with CDR-H2 mutation N55Q removing the glycosylation site
CD22-mFc
  effect of the mutation on affinity: no effect on affinity

## CMC-544 (87 μg/mg) (CMA-544 procedure)
CD22mFc
  KA: 6.6e+09 M⁻¹
  Ka: 460000 M⁻¹ s⁻¹
  Kd: 6.9e-05 s⁻¹

## CMA-676: isotype-matched control conjugate of hP67.6 (IgG4, anti-CD33) with AcBut linked calicheamicin [reference compound]
RL; RL #1
  IC50 of antibody: 17.14 µg/mL
  IC50: 0.6 nM
RL; RL #2
  IC50 of antibody: 11.43 µg/mL
  IC50: 0.4 nM
Daudi
  IC50 of antibody: 53.89 µg/mL
  IC50: 1.89 nM
Raji; Raji #1
  IC50 of antibody: 80.00 µg/mL
  IC50: 2.8 nM
Raji; Raji #2
  IC50 of antibody: 117.14 µg/mL
  IC50: 4.1 nM
Large RAMOS lymphoma
  effect on tumor growth: no effect on the tumor growth
  mice sacrificed before day 15 because of tumor burden: Four out of five
Ramos cells [2]; 160 μg/kg ip Q4Dx3, p>0.05
  effect on survival time: did not increase survival time significantly
Ramos cells [2]; [4]
  Average Survival Time: 32.9 days
  Maximum Survival Time: 36.0 days
  Median Survival Time: 34.0 days
  Minimum Survival Time: 28.0 days
Ramos cells [3]; 160 μg/kg ip Q4Dx3
  effect on survival times: no significant effect on survival times
Ramos cells [3]; [5]
  Average Survival Time: 33.7 days
  Maximum Survival Time: 42.0 days
  Median Survival Time: 31.0 days
  Minimum Survival Time: 30.0 days

## CCN(C(C)=O)[C@H]1CO[C@@H](O[C@H]2[C@H](O[C@H]3C#C/C=C\C#C[C@]4(O)CC(=O)C(NC(=O)OC)=C3/C4=C\CSSC(C)(C)CC(=O)NN)O[C@H](C)[C@@H](NO[C@H]3C[C@H](O)[C@H](SC(=O)c4c(C)c(I)c(O[C@@H]5O[C@@H](C)[C@H](O)[C@@H](OC)[C@H]5O)c(OC)c4OC)[C@@H](C)O3)[C@@H]2O)C[C@@H]1OC [N-ACETYL GAMMA CALICHEAMICIN DMH, N-Ac gamma calicheamicin DMH, reference compound]
RL; RL #1
  IC50: 0.226 nM
RL; RL #2
  IC50: 0.27 nM
Daudi
  IC50: 0.26 nM
Raji; Raji #1
  IC50: 0.46 nM
Raji; Raji #2
  IC50: 0.49 nM
Ramos; Ramos #1
  IC50: 0.7 nM
Ramos; Ramos #2
  IC50: 1 nM
RL NHL xenografts
  anti-tumor activity of unconjugated drug: inactive

B1: gH6: CDR-grafted 5/44 heavy chain graft gH6 (SEQ ID NO: 26) (antibody, V domains shown)
VH: EVQLVQSGAEVKKPGASVKVSCKASGYRFTNYWIHWVRQAPGQGLEWIGGINPGNNYATYRRKFQGRATLTADTSTSTVYMELSSLRSEDTAVYYCTREGYGNYGAWFAYWGQGTLVTVSS
modifications: gH6
Cell surface CD22
  binding activity in competition with mouse 5/44: did not appear to have affected binding

B2: gH7: CDR-grafted 5/44 heavy chain graft gH7 (SEQ ID NO: 27) (antibody, V domains shown)
VH: B1 VH with A68V, L70M
modifications: gH7
Cell surface CD22
  binding activity in competition with mouse 5/44: did not appear to have affected binding
